Assay results reported in PMC10353061 (ACS Pharmacology & Translational Science, 2023).

Assays:
[1] = test system: Wnt/β-catenin signaling pathway; assay: Topflash/Fopflash luciferase report assay in SW480 cells; format: cell-based; conditions: 30 μM
From the text: (§1) We synthesized derivatives 5–10 bearing 5-membered and 6-membered heterocyclic rings at the position 3′ or 4′ of the B phenyl ring. […] SW480 cells show higher Wnt activation compared to HCT116 cells.[28] […] In SW480 cells, compounds 5–10 were in the 1.75%(10)–7.32%(7) range of residual luciferase activity, except 6(28.46%), compared to 3(21.61%); in HCT116 cells, compounds 5–10 were in the 0.37%(7)–5.88%(5) range, compared to 3 (18.75%) (Table 1 and Figure 5).
(§2) Figure 5 Residual luciferase activity (%) by compounds 5–10 and reference compound 3 in SW480 cells (left panel) and HCT116 cells (right panel). Data are represented as the mean ± SD of three independent experiments, each performed in triplicate.
(§3) Briefly, the Topflash plasmid (Beyotime, Zhejiang, China) contains 7 TCF/LEF binding sites, while the Fopflash plasmid (Beyotime, Zhejiang, China) contains 6 mutated TCF/LEF binding sites, which are located in the upstream of the luciferase reporter. SW480 and HCT116 cell lines were cultured in 90% DMEM (HyClone, #SH30243.01) plus 10% fetal bovine serum (Gibco, #10270) and plasmocin (mpp-39-03, InvivoGen), respectively. The Topflash/Fopflash vector and plasmid pTK-renilla together were co-transfected to the cells. […] The Dual-Glo luciferase assay kit (Promega, #E1910) was used to measure the luminescence intensity (Figure 2).

HCC1937 cells = assay: Cell proliferation by live-cell imaging (IncuCyte), HCC1937 TNBC cells; format: cell-based; conditions: 40 μM, 72 h
Method: (§4) As TNBC is a highly heterogeneous subgroup, including breast cancers with different molecular and phenotypic traits,[37] effects of compounds 5–10 on cell proliferation were also tested in additional TNBC cell lines, i.e., HCC1806 and HCC1937. As inhibitors of HCC1806 TNBC cells, compounds 5–10 were evaluated in parallel with compounds 3, ICG-001, and iCRT3 (Figures 10 and S12–S19, Supporting Information); as inhibitors of the HCC1937 TNBC cells, 5–10 were compared with 3 and iCRT3 (Figures 10, S20, and S21). Effects on cell proliferation were evaluated as above for the MDA-MB-231 TNBC cells at the latest time point of observation of 72 h.
(§5) Figure 10 Inhibition of MDA-MB-231, HCC1806, and HCC1937 TNBC cell growth by compounds 5–10 and reference compounds 3, […], and iCRT3 at 40 μM. Cell growth inhibition was quantified using the IncuCyte cell-by-cell analysis software, by comparison with the growth of DMSO-treated cells at 72 h, set at 100% (mean ± SD, n = 3, one-way ANOVA, **p ≤ 0.01, ****p ≤ 0.0001).
(§6) Cell proliferation of breast cancer cell lines upon continuous treatment with select compounds was evaluated by the real-time quantitative live-cell imaging system. MDA-MB-231 (1500 cells/well), HCC1806 (2000 cells/well), and HCC1937 (3000 cells/well) were seeded in 96-well plates, treated with increasing doses of selected compounds and images (5 images/well) were acquired every 8 h for 3 days at 10× magnification in an IncuCyte SX5 live-content imaging system (Essen Bioscience) at 37 °C with 5% CO2. Images were analyzed using IncuCyte cell-by-cell analysis software to detect and quantify live cells (phase-contrast). The number of cells at each time point was quantified using IncuCyte cell-by-cell analysis software, and cell growth was evaluated as the normalized ratio between counted cells at each time point normalized to those counted at time 0. Graph drawing and statistical analyses were performed in GraphPad Prism according to the statistical tests described in the figure legends.

[2] = test system: Wnt/β-catenin signaling pathway; assay: Topflash/Fopflash luciferase report assay in HCT116 cells; format: cell-based, human; conditions: 30 μM
From the text: as §1, §2, §3

HCC1806 cells = assay: Cell proliferation by live-cell imaging (IncuCyte), HCC1806 TNBC cells; format: cell-based; conditions: 40 μM, 72 h
Method: as §4, §5, §6

MDA-MB-231 cells = assay: Cell proliferation by live-cell imaging (IncuCyte), MDA-MB-231 TNBC cells; format: cell-based; conditions: for effect on MDA-MB-231 cell proliferation: 40 μM, 48 and 72 h
From the text: TNBC represents approximately 10–15% of all breast cancers and is the most aggressive subtype of breast cancer. Patients with TNBC have a poor outcome compared to the other subtypes of breast cancer. In the breast cancer tissue, β-catenin is overexpressed compared to the normal tissue. The overexpression of β-catenin is associated with TNBC and lymph node metastasis. […] There is a quest for the development of new therapies to treat TNBC. […] Effects on cell proliferation of MDA-MB-231 TNBC cells were evaluated by live-time cell imaging using the Incucyte S5 system.
as §5, §6

[3] = test system: β-catenin/Tcf-4 interaction; assay: Co-immunoprecipitation of β-catenin and Myc-tagged Tcf-4 in HCT116 cells; format: cell-based, human; conditions: HCT116 transfected with Myc-tagged Tcf-4, LiCl 50 mM, 50 μM, 24 h
Method: Toward this end, we performed a co-immunoprecipitation study in HCT116 cells transfected with Myc-tagged Tcf-4, treated with the two compounds, and immunoprecipitated with Myc antisera.
HCT116 cells were transiently transfected with the Myc-tagged Tcf-4 plasmid and treated with LiCl (50 mM) and 9 (50 μM) or 10 (50 μM) for 24 h. Lysates were immunoprecipitated using Myc-agarose beads and western blot analysis was performed. […] Myc-agarose beads saturated with the Myc-blocking peptide before immunoprecipitation were used as a negative control.
Co-immunoprecipitation assays were performed as previously described.[16],[60] Briefly, 2 × 10^4/cm^2 HCT116 cells were seeded in a 100 mm dish and incubated overnight at 37 °C. Cells were transfected with pcDNA/Myc Tcf-4 (Addgene plasmid #16512; http://n2t.net/addgene:16512; RRID:Addgene_16512)[29] and, after overnight incubation, were starved for 8 h in a medium containing Opti-MEM (#31985070, Thermo Fisher Scientific), FBS 0.5%, pen/strep 1%, NaPyr 1%, NeAA 1%, and then co-treated with 50 mM LiCl and DMSO or 50 μM compound 9 or 50 μM compound […] for 24 h. Cells were collected at the end of the treatments and lysed in a buffer containing 0.5% Triton X-100, 0.5 mM EDTA, and 1 mM DTT. […] Chemioluminescence was detected using WesternBright ECL (#K-12045-D50, Advansta), according to the manufacturer’s protocol.

β-catenin = assay: Wnt reporter assay (TOP/FOP luciferase) in LiCl-treated HCT116 cells; format: cell-based; conditions: Homo sapiens, HCT-116, read-out: IC50, inhibition of β-catenin (luciferase reporter), LiCl 50 mM, 24 h
Method: Compounds 9 and 10 were assayed at increasing 10 and 100 nM and 1 μM concentrations in HCT116 cells transfected with luciferase-based vectors and treated with LiCl (50 mM). TOP TK is a well-established Wnt reporter vector containing eight sequences of Tcf/Lef binding site upstream of the timidine kinase (TK) minimal promoter, driving the expression of firefly luciferase.
Figure 6 HCT116 cells were transfected with luciferase-based vectors and treated with LiCl (50 mM) together with increasing concentrations of compound 9 or 10. Cells were harvested 24 h post-treatment and assayed for luciferase activity. Inhibitions were calculated as the luciferase/renilla ratio of the treated samples vs. the luciferase/renilla ratio of the untreated (control) samples. Data are represented as the mean ± SD of three independent experiments, each performed in triplicate. **p < 0.01, ***p < 0.001, n.s = not significant, as determined by analysis of variance (ANOVA).
Luciferase assays were performed as previously described.[58],[59] Briefly, HCT116 cells were transfected with Topflash reporter (M50 Super 8x TOPFlash, containing 8 repeats of TCF/LEF binding sites) or Fopflash reporter (M51 Super 8x FOPFlash, containing the mutated TCF/LEF binding sites) plasmids using the Dreamfect Gold Transfection Reagent (#DG80500, OZ Biosciences). […]

Fgf20 and Sal4 = assay: Wnt-target gene mRNA levels (qPCR) in LiCl-treated HCT116 cells; format: cell-based, human; conditions: HCT116, LiCl 50 mM, 24 h, 10 μM
Method: (§7) To this end, HCT116 cells were treated for 24 h with 50 mM LiCl and increasing concentrations (10–50–100 μM) of the two compounds.
HCT116 was treated with LiCl (50 mM) and 10 μM compound 9 or 10 for 24 h. Fgf20, Sall4 (Wnt-target genes) mRNA levels were measured by qPCR and normalized to the expression of β-actin mRNA. Results are expressed as fold change relative to the control sample and represent the mean ± SD of three independent experiments, each performed in triplicate. *p < 0.05, **p < 0.01, ***p < 0.001 as determined by ANOVA.

Myc = Myc and β-catenin expression (western blot, qPCR) in LiCl-treated HCT116 cells; format: cell-based, human; conditions: HCT116, LiCl 50 mM, 24 h
Method: as §7
Figure 7 Top panels. […] Vinculin was used as a loading control. […] Bottom panels. c-Myc mRNA levels were measured by qPCR and normalized to the expression of β-actin mRNA and expressed as fold change relative to the control sample. Results represent the mean ± SD of three independent experiments, each performed in triplicate. **p < 0.01, ***p < 0.001 as determined by ANOVA.
Briefly, total proteins from the cells in each group were subjected to 12% denaturing sodium dodecyl sulfate-polyacrylamide gel electrophoresis (SDS-PAGE). The proteins were then transferred onto a poly(vinylidene fluoride) (PVDF) membrane (Millipore). […] After the membrane was fully washed, it was incubated with secondary antibodies at 37 °C for 45 min goat anti-rabbit IgG H&L (HRP) (ab97051), Abcam, MA. The membrane was washed with Tris-buffered saline/Tween-20 (TBST) 4 times at room temperature for 14 min each time. Next, the samples were exposed and imaged (Sigma-Aldrich Chemical) using the enhanced chemiluminescence (ECL) method (Pierce Biotechnology).

Structure (SMILES) | % Luciferase Activity SW480 (residual) [1] [%] | effect on HCC1937 cell growth (HCC1937 cells) | % Luciferase Activity HCT116 (residual) [2] [%] | effect on HCC1806 cell growth (HCC1806 cells) | melting point [°C] | effect on MDA-MB-231 cell proliferation (MDA-MB-231 cells) | association between β-catenin and Tcf-4 (co-immunoprecipitation) [3] | IC50 (β-catenin) [nM] | mRNA levels of Wnt-target genes Fgf20 and Sal4 (Fgf20 and Sal4) | inhibition of Myc expression (Myc; 10 μM) | protein and mRNA levels of Myc (Myc; 10–50–100 μM) | β-catenin protein levels (Myc; 10–50–100 μM) | reduction of MDA-MB-231 cell viability (MDA-MB-231 cells; even at the low dose of 0.49 μM)
CCOC(=O)c1ccc(NS(=O)(=O)c2ccc(Br)cc2)cc1 [Compound 3, Ethyl 4-((4-bromophenyl)sulfonamido)benzoate, reference compound] | 21.61 | mild efficacy | 18.75 | mild efficacy |  |  |  |  |  |  |  |  | 
O=S(=O)(Nc1cccc(-c2ccco2)c1)c1ccc(Br)cc1 [Compound 5, 4-Bromo-N-(3-(furan-2-yl)phenyl)benzenesulfonamide] | 4.80 | significant inhibition | 5.88 | significant inhibition | 147 to 150 | significant antiproliferative effects |  |  |  |  |  |  | 
O=S(=O)(Nc1cccc(-c2ccccn2)c1)c1ccc(Br)cc1 [Compound 6, 4-Bromo-N-(3-(pyridin-2-yl)phenyl)benzenesulfonamide] | 28.46 | significant inhibition | 5.14 | significant inhibition | 175 to 177 | significant antiproliferative effects |  |  |  |  |  |  | 
O=S(=O)(Nc1cccc(-c2ccccn2)c1)c1ccc(Cl)cc1 [Compound 7, 4-Chloro-N-(3-(pyridin-2-yl)phenyl)benzenesulfonamide] | 7.32 |  | 0.37 | mild inhibitory effect | 166 to 169 |  |  |  |  |  |  |  | 
O=S(=O)(Nc1ccc(-c2ccco2)cc1)c1ccc(Br)cc1 [Compound 8, 4-Bromo-N-(4-(furan-2-yl)phenyl)benzenesulfonamide] | 1.82 |  | 5.58 | mild inhibitory effect | 163 to 166 |  |  |  |  |  |  |  | 
O=S(=O)(Nc1ccc(-c2ccccn2)cc1)c1ccc(Cl)cc1 [Compound 10, 4-Chloro-N-(4-(pyridin-2-yl)phenyl)benzenesulfonamide] | 1.75 |  | 4.56 |  | 180 to 182 |  | completely abrogated the association | > 1000 | strongly inhibited | about 2.5 fold | significant dose-dependent inhibition | reduced only at the highest dose | 
O=C1[C@H](Cc2ccc(O)cc2)N2C(=O)CCN(C(=O)NCc3ccccc3)[C@H]2CN1Cc1cccc2ccccc12 [ICG-001, reference compound] |  |  |  |  |  |  |  |  |  |  |  |  | most effective compound
